Results on two compounds are retold here after patent US20140329780A1, “INHIBITOR OF COLONISATION OF MUCOSA” (HELMHOLTZ-ZENTRUM FUER INFEKTIONSFORSCHUNG GMBH, priority 2011, published 2014).

Usually IC50 stands for the point on the concentration scale where inhibition reaches its midpoint. The IC90 is the point of the concentration-response curve where the effect stands at 90%. As a reminder, the IC10 is the concentration at which the effect reaches the 10% level. Read a high IC10 as weaker potency.

The test system of data set [1] is S. aureus N315. The data set is described as follows: Adhesion test: inhibition of adherence of S. aureus N315 on A549 cells. The format is cell-based, Staphylococcus aureus. As to conditions: for Reduction of adhesion [%]: S. aureus on A549 cells. Here is the method: S. aureus (N315) was precultivated on blood agar plates at 37° C. overnight. A colony was picked from the plate with a sterile loop and transferred into 5 ml of BHI medium. The suspension was incubated aerobically at 37° C. for 18 h. After this time the bacterial suspension was centrifugated and the clear medium was decanted off. The pellet was resuspended in PBS and centrifugated again twice. Finally the pellet was resuspended in infection medium at an OD of 1.0 at 600 nm.
Infection medium: Gibco RPMI 1640medium, pH 7.4 (Invitrogen, Carlsbad, USA), containing 1% FBS and 20 mM Hepes.
All media that were used were prewarmed to 37° C. The cell line A-549 was utilized. A-549 cells from a stock that was stored at −196° C. were quickly thawed and suspended in 10 ml of cell culture medium (DMEM (Lonza, Basel, Schweiz) containing 10% FBS (Invitrogen, Carlsbad, USA)). They were cultivated at 37° C. with 10% CO2 in cell culture bottles with a surface of 25 cm^2 under moisture saturation. The next day, the medium was removed and fresh medium was added. The cells were harvested at a confluency state of 80-90% by scrapping them off the bottom of the bottles and pipetting the suspension up and down several times. An aliquot was transferred into a fresh cell culture bottle with fresh medium. After another round of growth to 80-90% confluency the medium was removed and the cell layer was washed with 10 ml of sterile EBSS (Invitrogen). After removing the liquid, 1 ml of a 1% solution of trypsin was evenly distributed over the cell layer. After an incubation for 5 min at 37° C. and a visible detachment of the cell layer, 10 ml of fresh cell culture medium were added, the cells were resuspended and counted in a Neubauer cell counting chamber. A cell density of 100,000 /ml was adjusted and 100 μl of the cell suspension was distributed into the wells of a 96-well microtiter plate. The plate was incubated at 37° C. with 10% CO2 and moisture saturation until the cells had formed an adherent monolayer with 95-100% confluency (4-5 days). The medium was removed by pipetting and 75 μl of fresh infection medium were added to each well, followed by 25 μl of a bacterial suspension (OD600 1.0), together with different concentrations of the test compound. After an incubation time of 60 min at room temperature the medium and non-adherent bacteria were removed with a pipette and the wells were washed three times with PBS.
For fixing the cells a solution of 4% paraformaldehyde in PBS was added and incubated for 20 min at room temperature. After removing the solution and washing the cells with PBS twice, a primary antibody against S. aureus lipoteichoic acid (from rabbit, Acris Antibodies GmbH, Herford) at 1:5000 dilution in 1% BSA-PBS was added (50 μl/Well) and incubated for 45 min at room temperature. During the last 10 min of this incubation an additional 50 μl/well of a solution of DAPI ((4′,6 Diamidino-2-phenylindol)dihydrochloride) in PBS (final concentration 1 μg/ml) was added. After a washing step an incubation with the HRP-conjugated secondary antibody (goat anti rabbit, Dianova) in 1% BSA-PBS for 45 min at room temperature was carried out. For detection of chemiluminescence the BM chemiluminescence ELISA substrate (POD—peroxidase-based secondary detection systems, Roche) was used. Chemiluminescence was determined immediately after addition of the substrate with a chemiluminescence microtiter plate reader.
The detection and quantification of the adherent bacteria can also be carried out with a fluorescence-coupled secondary antibody, for which Alexa Fluor 488 goat anti rabbit at 1:1000 dilution was used. The determination of fluorescence was done after washing with PBS and adding 100 μl PBS per well with a fluorescence microtiter plate reader at 485/530 nm.
Another and very favourable way to quantify the adherent bacteria is the utilization of an automatic microscope.
The procedure is described for the ImageXpress Micro (IXM, Molecular Devices) […]

Data set [2] has as its system different S. aureus isolates (50128509, BH30(04), 50307270, BH30(04) spa, 50046981). The data set is described as follows: Inhibition of adherence of different S. aureus isolates. Type of data set: cell-based, Staphylococcus aureus. The conditions noted are these: MRSA, rifampicin-resistant, tetracycline resistant and methicillin sensitive isolates. The text has this: The inhibitory properties of ATA on different S. aureus isolates have been determined using the following strains: 50128509 (MRSA; source: HZI Braunschweig), BH30(04) (MRSA; biofilm positive; SCCmec type II; MLST type 8; CC8; kindly provided by Prof. Jim O'Gara), 50307270 (rifampicin-resistant; source HZI Braunschweig), BH30(04) spa (tetracycline resistant; kindly provided by Prof. Jim O'Gara), 50046981 (methicllin sensitive; source: HZI Braunschweig).
Adherence has been determined as described above.

A further data set has as its system host cells. The data set is described as follows: Effects on host cells. The format is cell-based.
For another data set, the system named is S. aureus. Put plainly: Influence of ATA on S. aureus already adhering to A549 cells. The format is cell-based, Staphylococcus aureus. Here is the method:
Black bars represent 0.95 μg/ml ATA and white bars represent 2.2 μg/ml. A549 cells were incubated with S. aureus for 1 hour in advance and then ATA was added. Shown are the results for adherence after incubation with ATA for the time period indicated in the graph.
All media that were used were prewarmed to 37° C. The cell line A-549 was utilized. A-549 cells from a stock that was stored at −196° C. were quickly thawed and suspended in 10 ml of cell culture medium (DMEM (Lonza, Basel, Schweiz) containing 10% FBS (Invitrogen, Carlsbad, USA)). They were cultivated at 37° C. with 10% CO2 in cell culture bottles with a surface of 25 cm^2 under moisture saturation. […] After an incubation for 5 min at 37° C. and a visible detachment of the cell layer, 10 ml of fresh cell culture medium were added, the cells were resuspended and counted in a Neubauer cell counting chamber. […]
For fixing the cells a solution of 4% paraformaldehyde in PBS was added and incubated for 20 min at room temperature. […] Chemiluminescence was determined immediately after addition of the substrate with a chemiluminescence microtiter plate reader.
Next, the influence of ATA at two different concentrations corresponding to the IC50 and IC90 values determined in Example 2, on adhering S. aureus cells has been determined. […] The adhesion has been calculated on the basis of 100% adhesion in the absence of ATA.

In a further data set the test system is MRSA strain N315. The data set is described as follows: Anti-bacterial activity / growth curves of MRSA strain N315. The format is cell-based, Staphylococcus aureus. The text has this:
That is, it has been recognized that ATA is able to inhibit adherence of bacteria, like S. aureus, including MRSA strains while not showing an anti-bacterial activity.

Data set [3] concerns S. aureus N315. The data set is described as follows: Inhibition of adherence of S. aureus N315 on human primary nasal epithelial cells. The conditions noted are these: 1 μg/ml ATA. Type of data set: cell-based, Staphylococcus aureus. How it is done:
The experiments with the human nasal primary cells (HNEPC, Provitro GmbH, Berlin) were used as described for the A-549 cells and used for up to four passages (corresponding to approx. four weeks). For the HNEPC, Airway epithelial cell growth medium (Provitro GmbH, Berlin) was used.
Following the general procedure as described above, the properties of ATA on inhibiting adhesion of S. aureus N315 on human primary epithelial cells was investigated. ATA was added at different concentrations to the culture and adherence was determined as described before. Already a concentration of 1 μg/ml ATA is sufficient to reduce the adherence of S. aureus to about 45%.

Where [4] appears, read: Staphylococcus aureus, N315, A549.
Where [5] appears, read: adhesion of S. aureus N315 on A549 cells.

“Also recorded” adds a separate entry of the source. Read-outs that look alike come from different tables or passages of the source.

Take `O=C(O)C1=CC(=C(c2ccc(O)c(C(=O)O)c2)c2ccc(O)c(C(=O)O)c2)C=CC1=O` [ATA, aurintricarboxylic acid]: the “Reduction of adhesion [%]” value with S. aureus N315 [1] (100 μM) and with S. aureus N315 [1] (≦50 μM) was over 90% in each case. In addition, it took 0.95 µg/mL to reach half-maximal inhibition in the data set with S. aureus N315 [1] (setting [4]) (IC50). In the data set on S. aureus N315 [1] (setting [4]), this compound returned an IC90 of about 2.2 µg/mL. Also, the 10% effect concentration (IC10) in the data set on S. aureus N315 [1] (setting [5]) was about 0.45 µg/mL. Besides, the “inhibitory activity on adherence of different S. aureus strains” value in data set [2] is “effective on different types of S. aureus strains”. In addition, the “effects on host cells” value with host cells is “no remarkable effects have been observed on host cells”. Further, the “percentage of adherence of S. aureus compared to the control with no ATA” value in the data set on S. aureus (2.2 μg/ml ATA added after 1 hour pre-incubation of A549 cells with S. aureus, after 3 hours) is given as “below 40%”. For the same compound, the “eradication of S. aureus after adherence to cells” value in the data set with S. aureus (ATA at IC50 and IC90 concentrations added after 1 hour adherence to A549 cells) is recorded as “potent in eradicating S. aureus after adherence to cells”. The “anti-bacterial effect (growth curves of MRSA strain N315)” value in the data set on MRSA strain N315 (40 ug/ml, FIG. 6) is on record as “does not have an anti-bacterial effect”. For the same compound, in the data set on MRSA strain N315 (48 μg/ml, FIG. 6), the “influence on growth of the MRSA strain” value is “does not significantly influence growth”. Besides, in the data set with MRSA strain N315 (concentration up to 100 μg/ml), the anti-bacterial activity result is “no anti-bacterial activity is present; also recorded: does not show anti-bacterial activity”. Besides, the “adherence of S. aureus” value in the data set on S. aureus N315 [3] was “about 45%”.

Take `Cc1cc(=O)c2c(O)c3c(O)cc(O)c4c5c(O)cc(O)c6c(O)c7c(=O)cc(CO)c8c1c2c(c34)c(c65)c78` [pseudohypericine]: the results for the “Reduction of adhesion [%]” value in the data set on S. aureus N315 [1] (100 μM) and in the data set with S. aureus N315 [1] (≦50 μM) were over 90% and 50%, respectively. For the same compound, in the data set with S. aureus N315 [1] (setting [5]), the IC10 was determined as 20 µM. In addition, in the data set on S. aureus N315 [1] (adhesion of S. aureus N315 on A549 cells, read-out: IC50), the 50% inhibitory concentration (IC50) was 51 µM. For the same compound, the IC90 with S. aureus N315 [1] (adhesion of S. aureus N315 on A549 cells, read-out: IC90) was found to be 80 µM.
